# Where “and” joins values, the source holds several entries; their conditions need not be identical. Identical values can stand only once.
# System: biosynthesis of hepatic cholesterol (hepatic epoxysqualene cyclase)
# Assay: Influence on the biosynthesis of hepatic cholesterol in vivo: incorporation of radioactivity in the C27 sterols
# Settings: 50 mg base/kg, oral (gavage), male OF1 mice; relative to control (vehicle) group; 14C-mevalonolactone at 1 h, sacrifice at 2 h
# Protocol: The influence of the molecules on hepatic cholesterogenesis in vivo is tested on male OF1 mice. The animals are conditioned in reverse cycle two weeks before administration of the product.
# At T=0 on the day of the experiment, the animals (3 to 6 mice/group) receive by oral administration (gavage) a suspension of the test product in the vehicle (3% gum arabic in water).
# At T=1 h, the radioactive precursor (R,S-2-^14 C-mevalonolactone) in a 0.9% aqueous solution of NaCl is injected intraperitoneally [2.5 or 5 μCi/mouse (i.e. 9.25×10^4 Bq or 1.85×10^5 Bq respectively)].
# At T=2 h, the animals are sacrificed by dislocation of the cervix; the livers are removed, rinsed, weighed and frozen in liquid nitrogen before being stored at -20° C.
# During the conditioning period and on the day of the experiment, the animals have free access to food and drinking water.
# The administration of the test product and the injection of the radioactive precursor take place in the middle of the dark period.
# After thawing, the whole liver (or part of the liver) is homogenized in water at 0°-4° C. An aliquot of the homogenate is then saponified in alcoholic potassium hydroxide for 90 minutes at 80° C. The unsaponifiable lipids are then extracted with petroleum ether. The solvent is evaporated off to dryness under a stream of nitrogen and the dry residue is redissolved in a chloroform/methanol mixture (2/1). The products contained in the extract are then separated by chromatography on a thin layer of silica after migration in the system hexane/ethyl acetate (80/20).
# The deposition of a standard mixture containing non-radioactive cholesterol, lanosterol, monoepoxysqualene, diepoxysqualene and squalene, together with ^14 C-cholesterol, makes it possible to determine the Rf of the compounds which serve as a reference for analysis of the radioactive profile of the unsaponifiable lipids.
# The distribution of the radioactivity is analyzed with an automatic linear analyzer. The relative percentage of radioactivity in the C^27 -sterol peak of the control (vehicle) group represents 100% incorporation. Calculation of the influence is based on the ratio of the percentage of radioactivity in the C^27 -sterol peak of the treated group to that of the control group.
row,Compound,Percentage influence on the incorporation of radioactivity in the C27 sterols
1,"C=CCN1CC=C2C(C)(C)[C@@H](NC(=O)C(F)(F)F)CC[C@]2(C)C1 (relative stereo) [Example 1, N-Trifluoroacetyl-1,2,3,5,6,7,8,8a-octahydro-2-(2-propen-1-yl)-5,5,8a-trimethyl-(6β,8aβ)-6-isoquinolineamine]",-37%
2,"C=CCN1CC=C2C(C)(C)[C@@H](NC(C)=O)CC[C@]2(C)C1 (relative stereo) [Example 16, N-Acetyl-1,2,3,5,6,7,8,8a-octahydro-2-(2-propen-1-yl)-5,5,8a-trimethyl-(6β,8aβ)-6-isoquinolineamine 4-methylbenzenesulfonate]",-14%
3,"CC1(C)C2=CCN(CC3CO3)C[C@@]2(C)CC[C@@H]1NC(=O)C(F)(F)F (stereo partly drawn) [Example 5, N-Trifluoroacetyl-1,2,3,5,6,7,8,8a-octahydro-2-[1-(2,3-epoxypropyl)]-5,5,8a-trimethyl-(6β,8aβ)-6-isoquinolineamine]",-32%
4,"C=CCN1CC=C2C(C)(C)[C@@H](N(C)C)CC[C@]2(C)C1 (relative stereo) [Example 20, N,N-Dimethyl-1,2,3,5,6,7,8,8a-octahydro-2-(2-propen-1-yl)-5,5,8a-trimethyl-(6β,8aβ)-6-isoquinolineamine (E)-2-butenedioate]",-21%

# Same assay, conditions: 100 mg base/kg, oral (gavage), male OF1 mice; relative to control (vehicle) group; 14C-mevalonolactone at 1 h, sacrifice at 2 h
row,Compound,Percentage influence on the incorporation of radioactivity in the C27 sterols
1,"CC1(C)C2=CCN(CC(O)CO)C[C@@]2(C)CC[C@@H]1NC(=O)C(F)(F)F (stereo partly drawn) [Example 6, N-Trifluoroacetyl-1,2,3,5,6,7,8,8a-octahydro-2-[1-(2,3-dihydroxypropyl)]-5,5,8a-trimethyl-(6β,8aβ)-6-isoquinolineamine E-2-butenedioate]",-74% and -78%

# Target: T1, epoxysqualene cyclase of the hepatic microsomes (Rattus norvegicus, UniProt P48450)
# T1 construct: Rat hepatic microsomes are used as the enzyme source; from tissue; host or cells: liver microsomes of male Wistar rats
# T1 sequence (P48450 1-733): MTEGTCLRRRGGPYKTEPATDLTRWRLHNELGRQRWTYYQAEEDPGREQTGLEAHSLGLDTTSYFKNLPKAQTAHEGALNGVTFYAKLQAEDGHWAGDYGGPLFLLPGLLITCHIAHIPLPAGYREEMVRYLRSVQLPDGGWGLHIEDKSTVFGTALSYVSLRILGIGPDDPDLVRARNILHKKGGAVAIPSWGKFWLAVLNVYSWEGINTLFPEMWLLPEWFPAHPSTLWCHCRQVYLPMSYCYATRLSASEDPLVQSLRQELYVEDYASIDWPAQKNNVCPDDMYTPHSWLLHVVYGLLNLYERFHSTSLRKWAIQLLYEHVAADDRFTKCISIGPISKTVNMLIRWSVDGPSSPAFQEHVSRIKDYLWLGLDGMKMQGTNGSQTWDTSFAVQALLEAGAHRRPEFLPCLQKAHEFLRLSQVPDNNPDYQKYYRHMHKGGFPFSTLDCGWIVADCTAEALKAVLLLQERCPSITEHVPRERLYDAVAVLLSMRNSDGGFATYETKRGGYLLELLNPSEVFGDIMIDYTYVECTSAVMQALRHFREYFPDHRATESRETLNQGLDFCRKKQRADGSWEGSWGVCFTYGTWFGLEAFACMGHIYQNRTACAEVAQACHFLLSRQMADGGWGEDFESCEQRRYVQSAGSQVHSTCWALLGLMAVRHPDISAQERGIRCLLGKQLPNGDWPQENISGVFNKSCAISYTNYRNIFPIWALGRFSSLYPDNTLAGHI
# Assay: Epoxysqualene cyclase inhibition: lanosterol formed from R,S-2,3-oxidosqualene by rat hepatic microsomes
# Assay type: biochemical, male Wistar rats
# Settings: not given
# Protocol: The method consists in measuring the lanosterol formed from the R,S-2,3-oxidosqualene by the microsomal enzyme. The enzyme is prepared according to the method described by Ness G. C. (Ness G. C. et al., Biochem. J. (1986), 233,167-172).
# Method of Measuring the Epoxysqualene Cyclase Activity
# Rat hepatic microsomes are used as the enzyme source. The method consists in measuring the lanosterol formed from the R,S-2,3-oxidosqualene. The R,S-2,3-oxidosqualene, the test products and Tween®80, in the form of organic solutions (2-propanone or sulfinylbismethane) (25 μl ), are placed in test tubes and 400 μl of potassium phosphate buffer (0.1M, pH=7.4) are then added. The reaction is initiated by the addition of 100 μl of microsomes. For a final reaction volume of 525 μl , the mixture contains 150 μM of R,S-2,3-oxidosqualene, 0.1% of Tween®80 (to solubilize the R,S-2,3-oxidosqualene) and 250 μg of microsomal proteins. The reaction time is 60 minutes at 37° C. The reaction is stopped by the addition of 300 μl of methanolic potassium hydroxide (7%) and 20 μg of stigmasterol as an internal standard. After saponification at 80° C. for 30 minutes and stirring with a rotary stirrer, the sterols are extracted with 2 ml of hexane.
# The lanosterol formed is separated from the R,S-2,3-oxidosqualene, the membrane cholesterol and the stigmasterol by gas chromatography after conversion to trimethylsilyl ethers. The derivatization of the sterols is carried out at 60° C. for 30 minutes after the addition of 25 μl of pyridine and 75 μl of the trimethylsilyl ester of 2,2,2-trifluoro-N-trimethylsilylethanimidic acid containing 1% of trimethylchlorosilane ethers.
# After evaporation, the trimethylsilyl ethers are redissolved in 100 μl of hexane. An aliquot of this solution (2 μl) is chromatographed in the gas phase on an OV1 capillary column (0.32 mm, 25 m) under the following conditions: injector temperature=270° C., oven temperature=260° C., detector temperature=300° C., the carrier gas being nitrogen at a pressure of 7.10^4 Pa.
# The potency of the molecules tested is expressed as the percentage inhibition of the amount of lanosterol formed for a concentration of 25.10^-6 mol of test product per liter. The results obtained with a number of compounds according to the invention are collated in Table II.
row,Compound,Percentage inhibition of the amount of lanosterol formed
1,"C=CCN1CC=C2C(C)(C)[C@@H](NC)CC[C@]2(C)C1 (relative stereo) [Example 13, N-Methyl-1,2,3,5,6,7,8,8a-octahydro-2-(2-propen-1-yl)-5,5,8a-trimethyl-(6β,8aβ)-6-isoquinolineamine ethanedioate]",63%

# Same assay, conditions: 25.10^-6 mol of test product per liter; 60 minutes at 37° C., pH=7.4; rat hepatic microsomes
row,Compound,Percentage inhibition of the amount of lanosterol formed
1,"CN(C)[C@H]1CC[C@]2(C)CN(CC=Cc3ccccc3)CC=C2C1(C)C (relative stereo) [Example 23, N,N-Dimethyl-1,2,3,5,6,7,8,8a-octahydro-2-(3-phenyl-2-propen-1-yl)-5,5,8a-trimethyl-(6β,8aβ)-6-isoquinolineamine 4-methylbenzenesulfonate]",98%
2,"CCCCCCCCCCCCN1CC=C2C(C)(C)[C@@H](N)CC[C@]2(C)C1 (relative stereo) [Example 14, 1,2,3,5,6,7,8,8a-Octahydro-2-dodecyl-5,5,8a-trimethyl-(6β,8aβ)-6-isoquinolineamine E-2-butenedioate]",29%
3,"CC(Cc1ccc(C(C)C)cc1)CN1CC=C2C(C)(C)[C@@H](N(C)C)CC[C@]2(C)C1 (stereo partly drawn) [Example 25, N,N-Dimethyl-1,2,3,5,6,7,8,8a-octahydro-2-[1-[2-methyl-3-[4-(1-methylethyl)phenyl]propyl]]-5,5,8a-trimethyl-(6β,8aβ)-6-isoquinolineamine (E)-2-butenedioate]",98%
4,"CC1(C)C2=CCN(CC(O)CO)C[C@@]2(C)CC[C@@H]1NC(=O)C(F)(F)F (stereo partly drawn) [Example 6, N-Trifluoroacetyl-1,2,3,5,6,7,8,8a-octahydro-2-[1-(2,3-dihydroxypropyl)]-5,5,8a-trimethyl-(6β,8aβ)-6-isoquinolineamine E-2-butenedioate]",62%
5,"CCCN1CC=C2C(C)(C)[C@@H](N(C)C)CC[C@]2(C)C1 (relative stereo) [Example 21, N,N-Dimethyl-1,2,3,5,6,7,8,8a-octahydro-2-propyl-5,5,8a-trimethyl-(6β,8aβ)-6-isoquinolineamine ethanedioate]",100%
6,"CCCCCCCCCCCCN1CC=C2C(C)(C)[C@H](N(C)C)CC[C@]2(C)C1 (relative stereo) [Example 18, N,N-Dimethyl-1,2,3,5,6,7,8,8a-octahydro-2-dodecyl-5,5,8a-trimethyl-(6α,8aβ)-6-isoquinolineamine ethanedioate]",66%
7,"CN(C)[C@H]1CC[C@]2(C)CN(CC=C(c3ccccc3)c3ccccc3)CC=C2C1(C)C (relative stereo) [Example 24, N,N-Dimethyl-1,2,3,5,6,7,8,8a-octahydro-2-(3,3-diphenyl-2-propen-1-yl)-5,5,8a-trimethyl-(6β,8aβ)-6isoquinolineamine ethanedioate]",92%
8,"CCCCCCCCCCCCN1CC=C2C(C)(C)[C@@H](NC)CC[C@]2(C)C1 (relative stereo) [Example 12, N-Methyl-1,2,3,5,6,7,8,8a-octahydro-2-dodecyl-5,5,8a-trimethyl-(6β,8aβ)-6-isoquinolineamine ethanedioate]",65%
9,"CN(C)[C@H]1CC[C@]2(C)CN(CC(O)CO)CC=C2C1(C)C (stereo partly drawn) [Example 22, N,N-Dimethyl-1,2,3,5,6,7,8,8a-octahydro-2-[1-(2,3-dihydroxypropyl)]-5,5,8a-trimethyl-(6β,8aβ)-6-isoquinolineamine]",64%
10,"C=CCN1CC=C2C(C)(C)[C@@H](N(C)C)CC[C@]2(C)C1 (relative stereo) [Example 20, N,N-Dimethyl-1,2,3,5,6,7,8,8a-octahydro-2-(2-propen-1-yl)-5,5,8a-trimethyl-(6β,8aβ)-6-isoquinolineamine (E)-2-butenedioate]",89%
11,"CCCCCCCCCCCCN1CC=C2C(C)(C)[C@@H](N(C)C)CC[C@]2(C)C1 (relative stereo) [Example 17, N,N-Dimethyl-1,2,3,5,6,7,8,8a-octahydro-2-dodecyl-5,5,8a-trimethyl-(6β,8aβ)-6-isoquinolineamine (E)-2-butenedioate]",100%
